Results: ChEMBL document CHEMBL4004803, “Syntheses and antibacterial activity of soluble 9-bromo substituted indolizinoquinoline-5,12-dione derivatives” (Eur J Med Chem, 2017)
Converted amounts (≈) assume the structure as drawn.

Experiments:
Assay type in all cases: functional
[1] = system: Staphylococcus aureus; experiment: Antibacterial activity against methicillin-resistant Staphylococcus aureus 102849 clinical isolate after 20 to 24 hrs by two-fold microdilution method
[2] = system: Staphylococcus aureus; experiment: Antibacterial activity against methicillin-resistant Staphylococcus aureus 103054 clinical isolate after 20 to 24 hrs by two-fold microdilution method
[3] = system: Staphylococcus aureus; experiment: Antibacterial activity against methicillin-resistant Staphylococcus aureus 111423 clinical isolate after 20 to 24 hrs by two-fold microdilution method
[4] = system: Staphylococcus aureus; experiment: Antibacterial activity against methicillin-resistant Staphylococcus aureus 10281-2 clinical isolate after 20 to 24 hrs by two-fold microdilution method
[5] = system: Staphylococcus aureus; experiment: Antibacterial activity against methicillin-resistant Staphylococcus aureus 131215 clinical isolate after 20 to 24 hrs by two-fold microdilution method
[6] = system: Staphylococcus aureus; experiment: Antibacterial activity against methicillin-resistant Staphylococcus aureus 111625 clinical isolate after 20 to 24 hrs by two-fold microdilution method
[7] = system: Streptococcus pneumoniae; experiment: Antibacterial activity against Streptococcus pneumoniae ATCC 6305 after 20 to 24 hrs by two-fold microdilution method
[8] = system: Staphylococcus aureus; experiment: Antibacterial activity against methicillin-resistant Staphylococcus aureus 822030 clinical isolate after 20 to 24 hrs by two-fold microdilution method
[9] = system: Enterococcus faecalis; experiment: Antibacterial activity against Enterococcus faecalis ATCC 29212 after 20 to 24 hrs by two-fold microdilution method
[10] = system: Staphylococcus haemolyticus; experiment: Antibacterial activity against Staphylococcus haemolyticus CICC 10373 after 20 to 24 hrs by two-fold microdilution method
[11] = system: Staphylococcus aureus; experiment: Antibacterial activity against methicillin-resistant Staphylococcus aureus ATCC 43300 after 20 to 24 hrs by two-fold microdilution method
[12] = system: Staphylococcus aureus; experiment: Antibacterial activity against methicillin-resistant Staphylococcus aureus 19950 clinical isolate after 20 to 24 hrs by two-fold microdilution method
[13] = system: Staphylococcus aureus; experiment: Antibacterial activity against methicillin-resistant Staphylococcus aureus 1012029 clinical isolate after 20 to 24 hrs by two-fold microdilution method
[14] = system: Staphylococcus aureus; experiment: Antibacterial activity against methicillin-resistant Staphylococcus aureus 1023043 clinical isolate after 20 to 24 hrs by two-fold microdilution method
[15] = system: Staphylococcus aureus; experiment: Antibacterial activity against methicillin-resistant Staphylococcus aureus 12308 clinical isolate after 20 to 24 hrs by two-fold microdilution method
[16] = system: Staphylococcus aureus; experiment: Antibacterial activity against methicillin-resistant Staphylococcus aureus 1108204 clinical isolate after 20 to 24 hrs by two-fold microdilution method
[17] = system: Staphylococcus aureus; experiment: Antibacterial activity against methicillin-resistant Staphylococcus aureus 1103006 clinical isolate after 20 to 24 hrs by two-fold microdilution method
[18] = system: Staphylococcus aureus; experiment: Antibacterial activity against methicillin-resistant Staphylococcus aureus 112047 clinical isolate after 20 to 24 hrs by two-fold microdilution method
[19] = system: Staphylococcus aureus; experiment: Antibacterial activity against methicillin-resistant Staphylococcus aureus 519238 clinical isolate after 20 to 24 hrs by two-fold microdilution method
[20] = system: Staphylococcus aureus; experiment: Antibacterial activity against methicillin-resistant Staphylococcus aureus 1024010 clinical isolate after 20 to 24 hrs by two-fold microdilution method
[21] = system: Staphylococcus aureus; experiment: Antibacterial activity against methicillin-resistant Staphylococcus aureus 614019 clinical isolate after 20 to 24 hrs by two-fold microdilution method
[22] = system: Staphylococcus aureus; experiment: Antibacterial activity against methicillin-resistant Staphylococcus aureus 110328-1 clinical isolate after 20 to 24 hrs by two-fold microdilution method
[23] = system: Staphylococcus aureus; experiment: Antibacterial activity against methicillin-resistant Staphylococcus aureus 316031 clinical isolate after 20 to 24 hrs by two-fold microdilution method
[24] = system: Staphylococcus aureus; experiment: Antibacterial activity against methicillin-resistant Staphylococcus aureus 219236 clinical isolate after 20 to 24 hrs by two-fold microdilution method
[25] = system: Staphylococcus aureus; experiment: Antibacterial activity against methicillin-resistant Staphylococcus aureus 112106 clinical isolate after 20 to 24 hrs by two-fold microdilution method
[26] = system: Staphylococcus aureus; experiment: Antibacterial activity against methicillin-resistant Staphylococcus aureus 30116-1 clinical isolate after 20 to 24 hrs by two-fold microdilution method
[27] = system: Staphylococcus aureus; experiment: Antibacterial activity against methicillin-resistant Staphylococcus aureus 831024 clinical isolate after 20 to 24 hrs by two-fold microdilution method
[28] = system: Staphylococcus aureus; experiment: Antibacterial activity against methicillin-resistant Staphylococcus aureus 120827 clinical isolate after 20 to 24 hrs by two-fold microdilution method
[29] = system: Staphylococcus aureus; experiment: Antibacterial activity against methicillin-resistant Staphylococcus aureus 530231 clinical isolate after 20 to 24 hrs by two-fold microdilution method
[30] = system: Staphylococcus aureus; experiment: Antibacterial activity against methicillin-resistant Staphylococcus aureus 1113041 clinical isolate after 20 to 24 hrs by two-fold microdilution method
[31] = system: Staphylococcus aureus; experiment: Antibacterial activity against […] Staphylococcus aureus ATCC 25923 after 20 to 24 hrs by two-fold microdilution method
[32] = system: Staphylococcus aureus; experiment: Antibacterial activity against methicillin-resistant Staphylococcus aureus 109016 clinical isolate after 20 to 24 hrs by two-fold microdilution method
[33] = system: Streptococcus pyogenes; experiment: Antibacterial activity against Streptococcus pyogenes ATCC 19615 after 20 to 24 hrs by two-fold microdilution method
[34] = system: Staphylococcus aureus; experiment: Antibacterial activity against methicillin-resistant Staphylococcus aureus 1111047-1 clinical isolate after 20 to 24 hrs by two-fold microdilution method
[35] = system: Staphylococcus aureus; experiment: Antibacterial activity against methicillin-resistant Staphylococcus aureus 919205 clinical isolate after 20 to 24 hrs by two-fold microdilution method
[36] = system: Staphylococcus aureus; experiment: Antibacterial activity against methicillin-resistant Staphylococcus aureus 502025 clinical isolate after 20 to 24 hrs by two-fold microdilution method
[37] = system: Staphylococcus aureus; experiment: Antibacterial activity against methicillin-resistant Staphylococcus aureus 724244 clinical isolate after 20 to 24 hrs by two-fold microdilution method
[38] = system: Staphylococcus aureus; experiment: Antibacterial activity against methicillin-resistant Staphylococcus aureus 202045 clinical isolate after 20 to 24 hrs by two-fold microdilution method
[39] = system: Staphylococcus aureus; experiment: Antibacterial activity against methicillin-resistant Staphylococcus aureus GLH15 clinical isolate after 20 to 24 hrs by two-fold microdilution method
[40] = system: Staphylococcus aureus; experiment: Antibacterial activity against methicillin-resistant Staphylococcus aureus clinical isolate after 20 to 24 hrs by two-fold microdilution method
[41] = system: Staphylococcus aureus; experiment: Antibacterial activity against methicillin-resistant Staphylococcus aureus 123152 clinical isolate after 20 to 24 hrs by two-fold microdilution method
[42] = system: Staphylococcus aureus; experiment: Antibacterial activity against methicillin-resistant Staphylococcus aureus 1214023 clinical isolate after 20 to 24 hrs by two-fold microdilution method
[43] = system: Staphylococcus aureus; experiment: Antibacterial activity against methicillin-resistant Staphylococcus aureus 814039 clinical isolate after 20 to 24 hrs by two-fold microdilution method
[44] = system: Staphylococcus aureus; experiment: Antibacterial activity against methicillin-resistant Staphylococcus aureus 912014 clinical isolate after 20 to 24 hrs by two-fold microdilution method
[45] = system: Staphylococcus aureus; experiment: Antibacterial activity against methicillin-resistant Staphylococcus aureus 221022 clinical isolate after 20 to 24 hrs by two-fold microdilution method
[46] = system: Staphylococcus aureus; experiment: Antibacterial activity against methicillin-resistant Staphylococcus aureus 121969 clinical isolate after 20 to 24 hrs by two-fold microdilution method
[47] = system: Staphylococcus aureus; experiment: Antibacterial activity against methicillin-resistant Staphylococcus aureus 1212221 clinical isolate after 20 to 24 hrs by two-fold microdilution method

CN(C)CCCCCOC(=O)c1c2c(n3cc(Br)ccc13)C(=O)c1ncccc1C2=O
MIC [1]: 0.25 µg/mL (≈ 0.516 µM) | MIC [2]: 0.5 µg/mL (≈ 1.03 µM) | MIC [3]: 2 µg/mL (≈ 4.13 µM) | MIC [4]: 0.25 µg/mL (≈ 0.516 µM) | MIC [5]: 0.25 µg/mL (≈ 0.516 µM) | MIC [6]: 0.25 µg/mL (≈ 0.516 µM) | MIC [7]: 0.5 µg/mL (≈ 1.03 µM) | MIC [8]: 0.5 µg/mL (≈ 1.03 µM) | MIC [9]: 0.125 µg/mL (≈ 0.258 µM) | MIC [10]: 0.25 µg/mL (≈ 0.516 µM) | MIC [11]: ≤ 0.0078 µg/mL | MIC [12]: 0.5 µg/mL (≈ 1.03 µM) | MIC [13]: 0.25 µg/mL (≈ 0.516 µM) | MIC [14]: 0.25 µg/mL (≈ 0.516 µM) | MIC [15]: 0.125 µg/mL (≈ 0.258 µM) | MIC [16]: 0.125 µg/mL (≈ 0.258 µM) | MIC [17]: 16 µg/mL (≈ 33 µM) | MIC [18]: 0.125 µg/mL (≈ 0.258 µM) | MIC [19]: 1 µg/mL (≈ 2.06 µM) | MIC [20]: 0.25 µg/mL (≈ 0.516 µM) | MIC [21]: 0.125 µg/mL (≈ 0.258 µM) | MIC [22]: 0.063 µg/mL (≈ 0.13 µM) | MIC [23]: 0.5 µg/mL (≈ 1.03 µM) | MIC [24]: 0.125 µg/mL (≈ 0.258 µM) | MIC [25]: 0.25 µg/mL (≈ 0.516 µM) | MIC [26]: 0.5 µg/mL (≈ 1.03 µM) | MIC [27]: 0.125 µg/mL (≈ 0.258 µM) | MIC [28]: 0.25 µg/mL (≈ 0.516 µM) | MIC [29]: 0.25 µg/mL (≈ 0.516 µM) | MIC [30]: 0.5 µg/mL (≈ 1.03 µM) | MIC [31]: ≤ 0.0078 µg/mL | MIC [32]: 0.25 µg/mL (≈ 0.516 µM) | MIC [33]: 2 µg/mL (≈ 4.13 µM) | MIC [34]: 0.5 µg/mL (≈ 1.03 µM) | MIC [35]: 0.125 µg/mL (≈ 0.258 µM) | MIC [36]: 0.5 µg/mL (≈ 1.03 µM) | MIC [37]: 0.125 µg/mL (≈ 0.258 µM) | MIC [38]: 0.5 µg/mL (≈ 1.03 µM) | MIC [39]: 0.25 µg/mL (≈ 0.516 µM) | MIC50 [40]: 0.25 µg/mL (≈ 0.516 µM) | MIC90 [40]: 0.5 µg/mL (≈ 1.03 µM) | MIC [41]: 0.25 µg/mL (≈ 0.516 µM) | MIC [42]: ≤ 0.0078 µg/mL | MIC [43]: 0.5 µg/mL (≈ 1.03 µM) | MIC [44]: 0.5 µg/mL (≈ 1.03 µM) | MIC [45]: 0.5 µg/mL (≈ 1.03 µM) | MIC [46]: 0.25 µg/mL (≈ 0.516 µM) | MIC [47]: 0.125 µg/mL (≈ 0.258 µM)
